Test [1] deals with fungi (antimycotic). The following applies: prior art DE-OS 2,623,129 and DE-OS 2,851,086; cited from earlier work.
Test [2] relates to dermatophytes, moulds and yeasts. The experiment in a line: Antimycotic in vitro activity, series dilution test (overall comparison). It is filed as cell-based. To be noted: 20° C., 24 to 96 hours. The procedure:
The in vitro tests were carried out in series dilution test with germ inocula of an average of 5×10^4 germs/ml of substrate. The nutrient medium was (a) for dermatophytes and moulds: Sabourand's milieu d'epreuve and (b) for yeasts: meat extract/glucose broth. The incubation temperature was 20° C. and the duration of incubation was 24 to 96 hours in the case of yeasts, and 96 hours in the case of dermatophytes and moulds.

Test [3] relates to Candida. The test can be described thus: Antimycotic in vivo activity (oral) in candidosis of mice. The following applies: mice SPF-CF, i.v. Candida; oral 25-100 mg/kg 1 h before and 7 h after infection. The procedure:
Mice of the SPF-CF type were infected intravenously with 1-2×10^6logarithmically growing Candida cells, which were suspended in physiological sodium chloride solution. The animals were treated orally one hour before and seven hours after the infection, with, in each case, 25-100 mg/kg of body weight of the formulations.
Untreated animals died 3 to 6 days after infection. The survival rate on the 6th day after infection was about 5% in the case of untreated control animals.

The values below come from US4879385A, “Substituted hydroxyalkyl-azoles and their use as antimycotics” (Bayer Aktiengesellschaft, priority 1982, dated 1989).

`OC(Cc1ccc(Cl)cc1)(Cn1ccnc1)c1ccc(Cl)cc1` (stereo not drawn) [(A), 1,2-bis(4-chlorophenyl)-2-hydroxy-3-(imidazol-1-yl)-propane]: the antimycotic properties entry in test [1] was “good antimycotic properties”.
In the case of `OC(Cn1ccnc1)(c1cccc(Cl)c1)c1cccc(Cl)c1` [(B), 1,1-bis(3-chlorophenyl)-1-hydroxy-2-(imidazol-1-yl)-ethane], the antimycotic properties result in test [1] is on record as “good antimycotic properties”.
As to `OC(Cc1ccccc1)(Cn1cncn1)c1ccc(-c2ccccc2)cc1` (stereo not drawn) [(C), 2-(4-biphenyl)-2 hydroxy-1-phenyl-3-(1,2,4-triazol-1-yl)-propane], the antimycotic properties entry in test [1] is listed as “good antimycotic properties”.
Consider `CC(C)(Cc1ccc(Cl)cc1)C(O)(Cn1ccnc1)c1ccc(Cl)cc1` (stereo not drawn) [Example 1, 2,4-bis(4-chlorophenyl)-3,3-dimethyl-1-(imidazol-1-yl)-butan-2-ol], for which, in test [2], the “antimycotic action in vitro compared with compounds (A), (B) and (C)” value was “better antimycotic action than the compounds (A), (B) and (C)”. Besides, in test [3], the “action in vivo compared with compounds (A), (B) and (C)” value (from here on “action in vivo compared with compounds”) is “better action than the compounds (A), (B) and (C)”.
Turning to `CC(C)(Oc1ccc(Cl)cc1)C(O)(Cn1cncn1)c1ccc(Cl)cc1.Cl` (stereo not drawn) [Example 2, 3-(4-chlorophenoxy)-2-(4-chlorophenyl)-3-methyl-1-(1,2,4-triazol-1-yl)-butan-2-ol hydrochloride], the “antimycotic action in vitro compared with compounds (A), (B) and (C)” value in test [2] was “better antimycotic action than the compounds (A), (B) and (C)”.
As for `CC(C)(c1ccc(Cl)cc1)C(O)(Cn1ccnc1)c1ccc(Cl)cc1` (stereo not drawn) [Example 3], in test [2], the “antimycotic action in vitro compared with compounds (A), (B) and (C)” value is “better antimycotic action than the compounds (A), (B) and (C)”.
With `CC(C)(Cc1ccc(Cl)cc1)C(O)(Cn1cncn1)c1ccc(Cl)cc1` (stereo not drawn) [Example 4], the “antimycotic action in vitro compared with compounds (A), (B) and (C)” value in test [2] is “better antimycotic action than the compounds (A), (B) and (C)”. Further, the “action in vivo compared with compounds” value in test [3] is “better action than the compounds (A), (B) and (C)”.
In the case of `CC(C)(c1ccc(Cl)cc1)C(O)(Cn1cncn1)c1ccc(Cl)cc1` (stereo not drawn) [Example 5], in test [2], the “antimycotic action in vitro compared with compounds (A), (B) and (C)” value is “better antimycotic action than the compounds (A), (B) and (C)”.
The same measure, in the same setting: in the case of `CC(C)(Cc1ccccc1)C(O)(Cn1cncn1)c1ccc(F)cc1` (stereo not drawn) [Example 6] it was “better antimycotic action than the compounds (A), (B) and (C)”.
`CC(C)(Cc1ccc(Cl)cc1)C(O)(Cn1ccnc1)c1ccc(F)cc1` (stereo not drawn) [Example 8]: the “antimycotic action in vitro compared with compounds (A), (B) and (C)” value in test [2] is “better antimycotic action than the compounds (A), (B) and (C)”. In test [3], the “action in vivo compared with compounds” value was “better action than the compounds (A), (B) and (C)”.
Take `CC(C)(Cc1ccc(Cl)cc1)C(O)(Cn1cncn1)c1ccc(F)cc1` (stereo not drawn) [Example 9]: the “antimycotic action in vitro compared with compounds (A), (B) and (C)” value in test [2] is “better antimycotic action than the compounds (A), (B) and (C)”. In addition, in test [3], the “action in vivo compared with compounds” value is “better action than the compounds (A), (B) and (C)”.
`CC(C)(Cc1ccc(F)cc1)C(O)(Cn1ccnc1)c1ccc(Cl)cc1` (stereo not drawn) [Example 10]: in test [2], the “antimycotic action in vitro compared with compounds (A), (B) and (C)” value was “better antimycotic action than the compounds (A), (B) and (C)”.
For `CC(C)(Cc1ccc(F)cc1)C(O)(Cn1cncn1)c1ccc(Cl)cc1` (stereo not drawn) [Example 11], the “antimycotic action in vitro compared with compounds (A), (B) and (C)” value in test [2] was “better antimycotic action than the compounds (A), (B) and (C)”. The “action in vivo compared with compounds” value in test [3] is “better action than the compounds (A), (B) and (C)”.
`CC(C)(Cc1ccc(Cl)cc1Cl)C(O)(Cn1ccnc1)c1ccc(F)cc1` (stereo not drawn) [Example 12]: the “antimycotic action in vitro compared with compounds (A), (B) and (C)” value in test [2] is “better antimycotic action than the compounds (A), (B) and (C)”.
Regarding `CC(C)(Sc1ccc(Cl)cc1)C(O)(Cn1cncn1)c1ccc(Cl)cc1` (stereo not drawn) [Example 14], the “antimycotic action in vitro compared with compounds (A), (B) and (C)” value in test [2] is “better antimycotic action than the compounds (A), (B) and (C)”.
The same measure, in the same setting: next, `CC(C)(Cc1ccc(F)cc1)C(O)(Cn1cncn1)c1ccccc1` (stereo not drawn) [Example 15]: “better antimycotic action than the compounds (A), (B) and (C)”.
The same measure, in the same setting: in the case of `CC(C)(Sc1ccc(Cl)cc1)C(O)(Cn1ccnc1)c1ccc(Cl)cc1` (stereo not drawn) [Example 16] it was “better antimycotic action than the compounds (A), (B) and (C)”.
Regarding `CC(C)(Oc1ccc(Cl)cc1Cl)C(O)(Cn1ccnc1)c1ccc(Cl)cc1` (stereo not drawn) [Example 17], the “action in vivo compared with compounds” value in test [3] was “better action than the compounds (A), (B) and (C)”.
Consider `CC(C)(Oc1ccc(Cl)cc1Cl)C(O)(Cn1cncn1)c1ccc(Cl)cc1` (stereo not drawn) [Example 18], for which the “antimycotic action in vitro compared with compounds (A), (B) and (C)” value in test [2] was “better antimycotic action than the compounds (A), (B) and (C)”. In addition, the “action in vivo compared with compounds” value in test [3] was “better action than the compounds (A), (B) and (C)”.
In the case of `CC(C)(Oc1ccccc1Cl)C(O)(Cn1cncn1)c1ccc(Cl)cc1` (stereo not drawn) [Example 19], the “antimycotic action in vitro compared with compounds (A), (B) and (C)” value in test [2] is “better antimycotic action than the compounds (A), (B) and (C)”.
Still for that read-out and setting: in the case of `CC(C)(Oc1ccccc1Cl)C(O)(Cn1ccnc1)c1ccc(Cl)cc1` (stereo not drawn) [Example 20] it was “better antimycotic action than the compounds (A), (B) and (C)”; in that of `Cc1cc(Cl)ccc1OC(C)(C)C(O)(Cn1cncn1)c1ccc(Cl)cc1` (stereo not drawn) [Example 21], “better antimycotic action than the compounds (A), (B) and (C)”; in that of `CC(C)(Oc1ccccc1)C(O)(Cn1cncn1)c1ccc(Cl)cc1` (stereo not drawn) [Example 22], “better antimycotic action than the compounds (A), (B) and (C)”.
The same measure, in the same setting: in the case of `CC(C)(Oc1ccccc1)C(O)(Cn1ccnc1)c1ccc(Cl)cc1` (stereo not drawn) [Example 23] it was “better antimycotic action than the compounds (A), (B) and (C)”; in that of `Cc1ccc(C(C)(C)C(O)(Cn2ccnc2)c2ccc(Cl)cc2)cc1` (stereo not drawn) [Example 25], “better antimycotic action than the compounds (A), (B) and (C)”.
For `CCC(C)(COc1ccc(Cl)cc1)C(O)(Cn1cncn1)c1ccc(Cl)cc1` (stereo not drawn) [Example 26], the “antimycotic action in vitro compared with compounds (A), (B) and (C)” value in test [2] was “better antimycotic action than the compounds (A), (B) and (C)”. In test [3], the “action in vivo compared with compounds” value was “better action than the compounds (A), (B) and (C)”.
Take `CCC(C)(Oc1ccc(Cl)cc1)C(O)(Cn1cncn1)c1ccc(Cl)cc1` (stereo not drawn) [Example 27]: in test [3], the “action in vivo compared with compounds” value is “better action than the compounds (A), (B) and (C)”.
As to `CC(C)(Cc1ccc(F)cc1)C(O)(Cn1cncn1)c1ccc(F)cc1` (stereo not drawn) [Example 28], the “antimycotic action in vitro compared with compounds (A), (B) and (C)” value in test [2] is “better antimycotic action than the compounds (A), (B) and (C)”. The “action in vivo compared with compounds” value in test [3] is “better action than the compounds (A), (B) and (C)”.
Consider `CC(C)(Oc1ccc(Cl)cc1)C(O)(Cn1cncn1)c1ccc(F)cc1` (stereo not drawn) [Example 29], for which, in test [2], the “antimycotic action in vitro compared with compounds (A), (B) and (C)” value was “better antimycotic action than the compounds (A), (B) and (C)”. Further, in test [3], the “action in vivo compared with compounds” value was “better action than the compounds (A), (B) and (C)”.
As to `CC(C)(Oc1ccc(F)cc1)C(O)(Cn1cncn1)c1ccc(F)cc1` (stereo not drawn) [Example 30], the “action in vivo compared with compounds” value in test [3] was “better action than the compounds (A), (B) and (C)”.
Consider `CC(C)(Oc1ccc(Cl)cc1)C(O)(Cn1ccnc1)c1ccc(F)cc1` (stereo not drawn) [Example 31], for which the “action in vivo compared with compounds” value in test [3] was “better action than the compounds (A), (B) and (C)”.
`CC(C)(Oc1ccc(F)cc1)C(O)(Cn1ccnc1)c1ccc(F)cc1` (stereo not drawn) [Example 32]: the “action in vivo compared with compounds” value in test [3] was “better action than the compounds (A), (B) and (C)”.
With `CC(C)(Cc1ccc(F)cc1)C(O)(Cn1ccnc1)c1ccc(F)cc1` (stereo not drawn) [Example 33], the “action in vivo compared with compounds” value in test [3] was “better action than the compounds (A), (B) and (C)”.
Still for that read-out and setting: next, `CCC(C)(Oc1ccc(F)cc1)C(O)(Cn1cncn1)c1ccc(F)cc1` (stereo not drawn) [Example 34]: “better action than the compounds (A), (B) and (C)”.
As to `CCC(C)(Oc1ccc(Cl)cc1)C(O)(Cn1cncn1)c1ccc(F)cc1` (stereo not drawn) [Example 35], in test [2], the “antimycotic action in vitro compared with compounds (A), (B) and (C)” value is “better antimycotic action than the compounds (A), (B) and (C)”. Also, the “action in vivo compared with compounds” value in test [3] is “better action than the compounds (A), (B) and (C)”.
